The text below walks through data of patent US11440923B2, “Substituted macrocyclic indole derivatives” (Bayer Aktiengesellschaft, priority 2017, dated 2022).

MCL-1, sequence (Q07820 whole entry, looked up, stated change not applied, the tested form may be a part): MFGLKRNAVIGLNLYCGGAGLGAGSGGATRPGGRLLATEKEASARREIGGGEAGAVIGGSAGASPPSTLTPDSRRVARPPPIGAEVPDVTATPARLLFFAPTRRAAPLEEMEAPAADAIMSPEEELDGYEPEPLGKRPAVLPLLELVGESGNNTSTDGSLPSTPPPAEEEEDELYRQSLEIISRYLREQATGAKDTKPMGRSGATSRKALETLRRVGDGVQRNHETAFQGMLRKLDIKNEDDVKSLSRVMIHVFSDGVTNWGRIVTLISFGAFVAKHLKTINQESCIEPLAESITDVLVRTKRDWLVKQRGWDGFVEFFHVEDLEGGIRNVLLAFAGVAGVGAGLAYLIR

One assay deals with MCL-1 (Homo sapiens (Human), UniProt Q07820, K194A/K197A/R201A). Kind of assay: Protein-protein interaction assay MCL-1/Noxa BH3 peptide (MCL-1 assay, TR-FRET). As to conditions: MCL-1 Assay IC50 (median). The assay is classed as binding. In a few lines:
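IC50 came from a 4-parameter regression of the 665/620 nm emission ratio, normalized to DMSO controls. The mix held 1 nM MBP-fused MCL-1 (residues 173-321), a biotin-Noxa BH3 tracer and compound in Tris buffer pH 7, incubated 10 min plus 1 h at 22° C., then overnight at 4° C.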
For orientation: TR-FRET usually uses a lanthanide donor and a delayed reading to cut background.
Usually IC50 stands for the concentration needed to halve the response being measured. As for `Cc1c2c(nn1C)C(CCN1CCOCC1)OCCCCn1c(C(=O)O)c(CCCOc3cccc4ccccc34)c3ccc(F)c-2c31` (racemic) [Example 7, (rac)-4-fluoro-2,3-dimethyl-15-[2-(morpholin-4-yl)ethyl]-7-[3-(naphthalen-1-yloxy)propyl]-2,10,11,12,13,15-hexahydropyrazolo[4′,3′:9,10][1,6]oxazacycloundecino[8,7,6-hi]indole-8-carboxylic Acid], the IC50 is 0.66 nM.

For the compound `CCc1c2c(nn1C)C(CCN1CCOCC1)OCCCCn1c(C(=O)O)c(CCCOc3cccc4cc(F)ccc34)c3ccc(Cl)c-2c31` (racemic) [Example 22, (rac)-4-chloro-3-ethyl-7-{3-[(6-fluoronaphthalen-1-yl)oxy]propyl}-2-methyl-15-[2-(morpholin-4-yl)ethyl]-2,10,11,12,13,15-hexahydropyrazolo[4′,3′:9,10][1,6]oxazacycloundecino[8,7,6-hi]indole-8-carboxylic Acid], inhibition was half-maximal at 1.5 nM (IC50). Compound `CCC1OCCCCn2c(C(=O)O)c(CCCOc3cccc4ccccc34)c3ccc(Cl)c(c32)-c2c1nn(C)c2C` (racemic) [Example 25, (rac)-4-chloro-15-ethyl-2,3-dimethyl-7-{3-[(naphthalen-1-yl)oxy]propyl}-2,10,11,12,13,15-hexahydropyrazolo[4′,3′:9,10][1,6]oxazacycloundecino[8,7,6-hi]indole-8-carboxylic Acid] registered an IC50 of 1.9 nM.

In turn, `Cc1c2c(nn1C)C(CCO)OCCCCn1c(C(=O)O)c(CCCOc3cccc4ccccc34)c3ccc(Cl)c-2c31` (racemic) [Example 26, (rac)-4-chloro-15-(2-hydroxyethyl)-2,3-dimethyl-7-{3-[(naphthalen-1-yl)oxy]propyl}-2,10,11,12,13,15-hexahydropyrazolo[4′,3′:9,10][1,6]oxazacycloundecino[8,7,6-hi]indole-8-carboxylic Acid] displayed an IC50 of 1.1 nM. `CCc1c2c(nn1C)C(C(F)(F)F)OCCCCn1c(C(=O)O)c(CCCOc3cccc4ccccc34)c3ccc(Cl)c-2c31` (racemic) [Example 27, (rac)-4-Chloro-3-ethyl-2-methyl-7-{3-[(naphthalen-1-yl)oxy]propyl}-15-(trifluoromethyl)-2,10,11,12,13,15-hexahydropyrazolo[4′,3′:9,10][1,6]oxazacycloundecino[8,7,6-hi]indole-8-carboxylic Acid] returned a half-inhibitory concentration (IC50) of 3.8 nM. The compound `Cc1c2c(nn1C)C(C1CC1)OCCCCn1c(C(=O)O)c(CCCOc3cccc4ccccc34)c3ccc(Cl)c-2c31` (racemic) [Example 28, (rac)-4-Chloro-15-cyclopropyl-2,3-dimethyl-7-{3-[(naphthalen-1-yl)oxy]propyl}-2,10,11,12,13,15-hexahydropyrazolo[4′,3′:9,10][1,6]oxazacycloundecino[8,7,6-hi]indole-8-carboxylic Acid] returned an IC50 of 1.1 nM. Take `COCCC1OCCCCn2c(C(=O)O)c(CCCOc3cccc4ccccc34)c3ccc(Cl)c(c32)-c2c1nn(C)c2C` (racemic) [Example 37, (rac)-4-chloro-(15-rac)-(2-methoxyethyl)-2,3-dimethyl-7-{3-[(naphthalen-1-yl)oxy]propyl}-2,10,11,12,13,15-hexahydropyrazolo[4′,3′:9,10][1,6]oxazacycloundecino[8,7,6-hi]indole-8-carboxylic Acid]: the IC50 is 0.48 nM. Regarding `CCc1c2c(nn1C)C(C1CC1)OCCCCn1c(C(=O)O)c(CCCOc3cccc4cc(F)ccc34)c3ccc(Cl)c-2c31` (racemic) [Example 38, (rac)-4-chloro-(15-rac)-cyclopropyl-3-ethyl-7-{3-[(6-fluoronaphthalen-1-yl)oxy]propyl}-2-methyl-2,10,11,12,13,15-hexahydropyrazolo[4′,3′:9,10][1,6]oxazacycloundecino[8,7,6-hi]indole-8-carboxylic Acid], the IC50 came to 1.3 nM. As for `CCc1c2c(nn1C)C(CCOC)OCCCCn1c(C(=O)O)c(CCCOc3cccc4cc(F)ccc34)c3ccc(Cl)c-2c31` (racemic) [Example 41, (rac)-4-chloro-3-ethyl-7-{3-[(6-fluoronaphthalen-1-yl)oxy]propyl}-(15-rac)-(2-methoxyethyl)-2-methyl-2,10,11,12,13,15-hexahydropyrazolo[4′,3′:9,10][1,6]oxazacycloundecino[8,7,6-hi]indole-8-carboxylic Acid], half-maximal inhibition (IC50) required 0.52 nM. In the case of `CCc1c2c(nn1C)C(CCO)OCCCCn1c(C(=O)O)c(CCCOc3cccc4cc(F)ccc34)c3ccc(Cl)c-2c31` (racemic) [Example 44, (rac)-4-chloro-3-ethyl-7-{3-[(6-fluoronaphthalen-1-yl)oxy]propyl}-(15-rac)-(2-hydroxyethyl)-2-methyl-2,10,11,12,13,15-hexahydropyrazolo[4′,3′:9,10][1,6]oxazacycloundecino[8,7,6-hi]indole-8-carboxylic Acid], the IC50 was found to be 0.39 nM. On to `CCc1c2c(nn1C)C(CCN1CCOCC1)OCCCCn1c(C(=O)O)c(CCCOc3cccc4cc(F)ccc34)c3ccc(F)c-2c31` (racemic) [Example 49, (rac)-3-Ethyl-4-fluoro-7-{3-[(6-fluoronaphthalen-1-yl)oxy]propyl}-2-methyl-(15-rac)-[2-(morpholin-4-yl)ethyl]-2,10,11,12,13,15-hexahydropyrazolo[4′,3′:9,10][1,6]oxazacycloundecino[8,7,6-hi]indole-8-carboxylic Acid], for which half-maximal inhibition (IC50) was put at 0.85 nM. Turning to `CCc1c2c(nn1C)C(CC(C)(C)O)OCCCCn1c(C(=O)O)c(CCCOc3cccc4cc(F)ccc34)c3ccc(Cl)c-2c31` (racemic) [Example 52, (rac)-4-chloro-3-ethyl-7-{3-[(6-fluoronaphthalen-1-yl)oxy]propyl}-(15-rac)-(2-hydroxy-2-methylpropyl)-2-methyl-2,10,11,12,13,15-hexahydropyrazolo[4′,3′:9,10][1,6]oxazacycloundecino[8,7,6-hi]indole-8-carboxylic Acid], the IC50 was 0.88 nM. For the compound `CCc1c2c(nn1C)C(c1ccccc1)OCCCCn1c(C(=O)O)c(CCCOc3cccc4cc(F)ccc34)c3ccc(Cl)c-2c31` (racemic) [Example 59, (rac)-4-chloro-3-ethyl-7-{3-[(6-fluoronaphthalen-1-yl)oxy]propyl}-2-methyl-(15-rac)-phenyl-2,10,11,12,13,15-hexahydropyrazolo[4′,3′:9,10][1,6]oxazacycloundecino[8,7,6-hi]indole-8-carboxylic Acid], the concentration for half-maximal inhibition (IC50) was found to be 2.7 nM.

As for `CCc1c2c(nn1C)C(CCCN1CCOCC1)OCCCCn1c(C(=O)O)c(CCCOc3cccc4cc(F)ccc34)c3ccc(Cl)c-2c31` (racemic) [Example 65, (rac)-4-chloro-3-ethyl-7-{3-[(6-fluoronaphthalen-1-yl)oxy]propyl}-2-methyl-(15-rac)-[3-(morpholin-4-yl)propyl]-2,10,11,12,13,15-hexahydropyrazolo[4′,3′:9,10][1,6]oxazacycloundecino[8,7,6-hi]indole-8-carboxylic Acid], 1.3 nM corresponded to half-maximal inhibition (IC50). Turning to `CCc1c2c(nn1C)C(CCC(C)(C)O)OCCCCn1c(C(=O)O)c(CCCOc3cccc4cc(F)ccc34)c3ccc(Cl)c-2c31` (racemic) [Example 74, (rac)-4-chloro-3-ethyl-7-{3-[(6-fluoronaphthalen-1-yl)oxy]propyl}-(15-rac)-(3-hydroxy-3-methylbutyl)-2-methyl-2,10,11,12,13,15-hexahydropyrazolo[4′,3′:9,10][1,6]oxazacycloundecino[8,7,6-hi]indole-8-carboxylic Acid], the IC50 turned out to be 1 nM. Turning to `CCc1c2c(nn1C)C(Cc1ccccc1)OCCCCn1c(C(=O)O)c(CCCOc3cccc4cc(F)ccc34)c3ccc(Cl)c-2c31` (racemic) [Example 92, (rac)-(rac-15)-benzyl-4-chloro-3-ethyl-7-{3-[(6-fluoro-1-naphthyl)oxy]propyl}-2-methyl-2,10,11,12,13,15-hexahydropyrazolo[4′,3′:9,10][1,6]oxazacycloundecino[8,7,6-hi]indole-8-carboxylic Acid], the IC50 was 3.2 nM. For `CCc1c2c(nn1C)C1CCCCN1CCCCn1c(C(=O)O)c(CCCOc3cccc4ccccc34)c3ccc(Cl)c-2c31` (racemic) [Example 102, (rac)-18-chloro-1-ethyl-2-methyl-15-[3-(1-naphthyloxy)propyl]-2,3b,4,5,6,7,9,10,11,12-decahydropyrazolo[3′,4′:8,9]pyrido[1′,2′:6,7][1,6]diazacycloundecino[10,11,1-hi]indole-14-carboxylic Acid], the IC50 was 1.4 nM. The compound `Cc1c2c(nn1C)C(CCN1CCOCC1)OCCCCn1c(C(=O)O)c(CCCOc3cccc4cc(F)ccc34)c3ccc(Cl)c-2c31` (single isomer, unassigned; enantiomer 2) [Example 18, 4-chloro-7-{3-[(6-fluoronaphthalen-1-yl)oxy]propyl}-2,3-dimethyl-15-[2-(morpholin-4-yl)ethyl]-2,10,11,12,13,15-hexahydropyrazolo[4′,3′:9,10][1,6]oxazacycloundecino[8,7,6-hi]indole-8-carboxylic Acid (Enantiomer 2)] registered an IC50 of 42 nM. `Cc1c2c(nn1C)C(CCN1CCOCC1)OCCCCn1c(C(=O)O)c(CCCOc3cccc4cc(F)ccc34)c3ccc(F)c-2c31` (single isomer, unassigned; enantiomer 2) [Example 21, 4-fluoro-7-{3-[(6-fluoronaphthalen-1-yl)oxy]propyl}-2,3-dimethyl-15-[2-(morpholin-4-yl)ethyl]-2,10,11,12,13,15-hexahydropyrazolo[4′,3′:9,10][1,6]oxazacycloundecino[8,7,6-hi]indole-8-carboxylic Acid (Enantiomer 2)] showed an IC50 of 160 nM.

Still in this assay, the particulars now being: read-out: MCL-1 Assay IC50 (median).
For `CCc1c2c(nn1C)C1CCCN1CCCCn1c(C(=O)O)c(CCCOc3cccc4cc(F)ccc34)c3ccc(Cl)c-2c31` (single isomer, unassigned; (+)) [Example 105, (+)-17-chloro-1-ethyl-14-{3-[(6-fluoronaphthalen-1-yl)oxy]propyl}-2-methyl-3b,4,5,6,8,9,10,11-octahydro-2H-pyrazolo[3′,4′:8,9]pyrrolo[1′,2′:6,7][1,6]diazacycloundecino[10,11,1-hi]indole-13-carboxylic Acid], the IC50 was determined as 1.1 nM.
